Molecular target: T1, rat UT-A1 (Rattus norvegicus, UniProt Q62668)
T1 construct: expressed in transfected cells; host or cells: MDCK cells (gift of Dr. Jeffrey Sands, Emory University)
T1 sequence (Q62668 1-929): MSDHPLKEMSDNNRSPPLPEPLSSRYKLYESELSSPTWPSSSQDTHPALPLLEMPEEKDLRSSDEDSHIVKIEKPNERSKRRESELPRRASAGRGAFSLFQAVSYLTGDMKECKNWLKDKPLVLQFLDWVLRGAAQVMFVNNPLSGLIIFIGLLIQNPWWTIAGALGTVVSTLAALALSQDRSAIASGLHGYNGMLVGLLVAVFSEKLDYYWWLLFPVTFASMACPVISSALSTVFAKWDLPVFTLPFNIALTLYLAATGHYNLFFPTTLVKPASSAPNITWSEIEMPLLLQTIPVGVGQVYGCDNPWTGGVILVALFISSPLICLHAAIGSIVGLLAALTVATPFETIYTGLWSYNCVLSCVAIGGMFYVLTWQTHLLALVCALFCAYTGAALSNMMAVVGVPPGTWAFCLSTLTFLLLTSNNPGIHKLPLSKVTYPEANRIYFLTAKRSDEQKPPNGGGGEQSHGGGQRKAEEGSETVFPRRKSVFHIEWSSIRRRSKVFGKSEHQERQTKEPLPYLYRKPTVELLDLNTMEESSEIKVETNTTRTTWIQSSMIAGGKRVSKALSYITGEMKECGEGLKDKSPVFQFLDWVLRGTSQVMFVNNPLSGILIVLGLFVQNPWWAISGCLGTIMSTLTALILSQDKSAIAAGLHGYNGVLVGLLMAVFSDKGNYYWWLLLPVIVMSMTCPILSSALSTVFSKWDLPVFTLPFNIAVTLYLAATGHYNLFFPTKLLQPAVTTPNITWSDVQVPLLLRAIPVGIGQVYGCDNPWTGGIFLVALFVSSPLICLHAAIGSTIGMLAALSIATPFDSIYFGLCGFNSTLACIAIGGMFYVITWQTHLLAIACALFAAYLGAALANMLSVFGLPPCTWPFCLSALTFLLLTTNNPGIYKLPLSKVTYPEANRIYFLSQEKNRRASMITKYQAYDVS
Assay: UT-A1-facilitated urea flux across MDCK-UT-A1 cell layers
Type: cell-based
Settings: forskolin-stimulated MDCK-UT-A1 cells, 15-min time point; read-out: EC50 against rat UT-A1
Procedure: Concentration-inhibition studies were performed to study the effect of the active mouse UT-B inhibitors on urea transport by UT-A. The amino acid sequences of UT-B and UT-A urea transporter isoforms share significant similarity. The cells used in these studies were MDCK cells that expressed rat UT-A1. MDCK-UT-A1-expressing cells were grown on collagen-coated porous filters until they were electrically tight, at which point 15 mM urea was introduced into buffer bathing the basolateral cell surface.
MDCK cells stably transfected with rat UT-A1 (MDCK-UT-A1) (Fröhlich et al., Am J Physiol. in press; Fröhlich et al., Am. J. Physiol. Cell Physiol. 286:C1264-70 (2004). Epub on Jan. 28, 2004) were generously provided by Dr. Jeffrey Sands (Emory University School of Medicine, Atlanta, Ga.). Cells were grown in Dulbecco's Modified Eagle Medium (DMEM) with bicarbonate and supplemented with 10% fetal bovine serum (FBS), 25 mM HEPES buffer, penicillin G (100 U/mL), streptomycin (100 μg/mL) and hygromycin (500 μg/mL). For determining urea flux, cells were grown on 12-mm collagen-coated TRANSWELL inserts (0.4 μm pore size; Costar) as described (Fröhlich et al., Am J Physiol. in press; Fröhlich et al., 2004, supra). The TRANSWELL inserts were incubated in hygromycin-free medium for 1 hr in a 5% CO2 tissue culture incubator (37° C.), and then 2×10^5 cells/cm^2 were loaded onto each insert. Cells were used after culturing the cells for 4 days in hygromycin-free medium, at which time they formed tight monolayers (transepithelial resistance 500-600 Ω·cm^2).
UT-A1-facilitated urea flux in the basolateral-to-apical direction across unstimulated and forskolin-stimulated MDCK-UT-A1 cell layers was measured in response to a 15-mM urea gradient. Experiments were carried out in 12-well plates in which PBS, containing either DMSO vehicle or forskolin, with or without UT-B inhibitor, added to both the apical-facing (0.2 mL) and basal-facing (1 mL) surfaces of cells on the porous filters. Cultures were incubated in the absence of urea for 30 min at 37° C. Then, the basal-facing solution was replaced with PBS (containing same components) with 15 mM urea. Five μL samples of apical fluid were collected at specified times during incubation at 37° C., and urea concentration was determined using a commercial kit based on chromogenic urea complexation at 520-nm wavelength (Quantichrom™ Urea Assay Kit, BioAssay Systems, Hayward, Calif.). Forskolin (10 μM), with or without UT-B transport inhibitors, was added from 1000× DMSO stock solutions (0.2% final DMSO content). Inhibition of UT-A1-mediated transport was defined as % inhibition=100% (Aforsk−Atest)/(Aforsk−Aphlor). Aforsk, and Aphlor were averaged absorbance values (at 520 nm) for cultures treated with forskolin and forskolin+phloretin, respectively, and Atest were values from cultures treated with forskolin+test compound.

EC50 | SMILES
~15 µM | Cc1ccc(Nc2nnc(-c3ccc(C(N)=O)cc3)c3ccccc23)cc1 [ureainh-302]
~1.2 µM | NC(=O)CSc1oc(-c2ccccc2)nc1S(=O)(=O)c1ccc(Br)cc1 [ureainh-101]

— patent publication US20110053995A1, “BENZENESULFONANILIDE COMPOUND INHIBITORS OF UREA TRANSPORTERS” (THE REGENTS OF THE UNIVERSITY OF CALIFORNIA, priority 2006, published 2011)
